SMILES strings stand for the structures.

Test [1] relates to SRS-A (slow reacting substance of anaphylaxis) contraction of ileum. The test can be described thus: Anti-SRS-A action using ileus of guinea pigs. The class given is cell-based, Hartley strain male guinea pigs. The conditions noted are these: 5 min, guinea pig ileum, SRS-A 20 units, compound five minutes before; for inhibition at 1 µM: Cavia porcellus, 1/1000 mM, read-out: 1/1000 mM SRS-A Inhibition Ratio %; for 1/1000 mM SRS-A Inhibition Ratio %: Na salt, 1 µM. The method, then:
(§1) The compounds of the present invention have been evaluated for their anti-allergenic action by passive cutaneous anaphylatic assay (PCA) in rats and by measuring the anti-SRS-A action using ileus of guinea pigs.
Anti-SRS-A action (An anti-acton against slow reacting substance of anaphylaxis).
Hartley strain male guinea pigs (300 to 350 grams body weight) are killed and 1.0 to 1.5 cm of ileum is immeidiately excised from ileocecal parts and is suspended in 10 ml of Tyrode solution (95% 02 -5% CO2 saturation) containing 10^-7 g/ml of atropine and 10^-6 g/ml of pyrilamine. SRS-A (20 units) (the amount of SRS-A showing the same contradiction as 5 ng of histamine is defined as 1 unit) prepared by using sensitized guinea pig lung is given to cause contraction there. Then antagonistic action of test compounds treated five minutes ago against the contraction is measured and recorded via isotonic transducer. [formula] in which A' is a height of contraction of SRS-A+test compound and A is that of SRS-A.

Test [2] has as its system passive cutaneous anaphylaxis (DNP-As homocytotropic antiserum). As to the kind of experiment: passive cutaneous anaphylatic assay (PCA) in rats. The test is classed as in vivo, Wistar strain rats. The conditions noted are these: 10 mg/kg orally, one hour before antigen; for inhibition in vivo at 10 mg/kg: Rattus norvegicus, po, 1 h, read-out: PCA Inhibition Ratio %; for PCA Inhibition Ratio %: Na salt. As to the method:
as §1
(i) Antiserum abundant in homocytotropic antibody is prepared by the same method as Tada and Okumura did (cf. Journal of Immunology, vol. 106, page 1002, 1971). Thus, 1 mg (calculated as an amount of protein) of DNP-As (2,4-dinitrophenylcoupled ascaris extract) prepared by methods of Strejan and Campbell (Journal of Immunology, vol. 98, p. 893, 1967) and of Eisen (Journal of Amer. Chem. Soc., vol. 75, p 4593, 1953) and 1×10^10pertussis vaccine are administered to each paw of Wistar strain rats (180 to 200 grams body weights) by dividing the dose by four. Five days later, 0.5 mg of DNP-As is administered into muscle of back. Eight days later from the initial immunization, blood is taken from discending aorta under anesthetizing with ether, the resulting serum is stored at -80° and is melted before use.
(ii) Effect of tested compounds is investigated as follows:
Anti-serum obtained by th method (i) is diluted with physiological saline solution double by double successively and 0.05 ml of each diluted solution is administered into the back of Wistar strain rats (140 to 160 grams body weight) intradermally. After 72 hours, a solution of 2 mg (calculated as protein) of DNP-As and 2.5 mg of Evans Blue dissolved in 1 ml of physiological saline solution is administered intraveously at a dose of 5 ml/kg. After 30 minutes from the antigen solution administration, the animals are killed and the diameters of blue spots which appeared at the place where antiserum was administered were measured. The PCA test is conducted by the same method as already described using a diluted solutions of antiserum which always show 10 mm or more of spot diameters and the effect of the test compounds is judged. Thus antiserum diluted solutions are administered into two places in the back. Test compounds are administered orally at the dose of 10 mg/kg one hour before administration of the antigen solution. From the skin of reacted parts of killed animals, leaked or emitted dyestuff is extracted and the amount of the dyestuff is measured. The inhibition ratio is calculated by the following expression: [formula] in which A' is an amount of dyestuff in the group treated with the test compounds and A is that in the control group.

In the case of `CCOC(=O)c1cccc2c(=O)cc(-c3ccccc3F)[nH]c12` [2-Fluoro, Ethyl], the inhibition at 1 µM in test [1] came out at 33.3%. Also, in test [2], the inhibition in vivo at 10 mg/kg came to 28.5%.

In the case of `CCOC(=O)c1cccc2c(=O)cc(-c3ccc(OC)cc3)[nH]c12` [4-Methoxy, Ethyl], the inhibition at 1 µM in test [1] was 20.3%. For the same compound, the inhibition in vivo at 10 mg/kg in test [2] was 3.2%.

As for `O=C(O)c1ccc2c(c1)C(=O)CC(c1ccccc1)=N2` [Example 2, 2-Phenyl-4-quinolone-6-carboxylic acid], in test [1], the inhibition at 1 µM was 23.9%. For the same compound, the inhibition in vivo at 10 mg/kg in test [2] is 22.5%.

As to `O=C(O)c1ccc2[nH]c(-c3ccccc3)cc(=O)c2c1` [Example 3, Sodium 2-phenyl-4-quinolone-6-carboxylate], the inhibition at 1 µM in test [1] turned out to be 85%. In addition, in test [2], the inhibition in vivo at 10 mg/kg is 27.9%.

As for `CC(C)OC(=O)c1ccc2c(c1)C(=O)CC(c1ccccc1)=N2` [Example 5, Isopropyl 2-phenyl-4-quinolone-6-carboxylate], in test [1], the inhibition at 1 µM came out at 36.7%. For the same compound, the inhibition in vivo at 10 mg/kg in test [2] turned out to be 26.2%.

For the compound `O=C(OCCc1ccccc1)c1ccc2c(c1)C(=O)CC(c1ccccc1)=N2` [Example 6, Phenethyl 2-phenyl-4-quinolone-6-carboxylate], the inhibition at 1 µM in test [1] was found to be 22.8%. The inhibition in vivo at 10 mg/kg in test [2] came to 24.3%.

In the case of `COC(=O)c1ccc2c(c1)c(=O)cc(-c1ccccc1)n2C` [Example 7, Methyl 1-methyl-2-phenyl-4-quinolone-6-carboxylate], the inhibition at 1 µM in test [1] came out at 100%. The inhibition in vivo at 10 mg/kg in test [2] amounted to 21.3%.

For `Cn1c(-c2ccccc2)cc(=O)c2cc(C(=O)O)ccc21` [Example 8, 1-Methyl-2-phenyl-4-quinolone-6-carboxylic acid], the inhibition at 1 µM in test [1] worked out at 22%. Moreover, the inhibition in vivo at 10 mg/kg in test [2] amounted to 16.2%.

Consider `COC(=O)c1ccc2c(c1)C(=O)C(C)C(c1ccccc1)=N2` (stereo not drawn) [Example 9, Methyl 3-methyl-2-phenyl-4-quinolone-6-carboxylate], for which, in test [1], the inhibition at 1 µM amounted to 54.8%. Moreover, the inhibition in vivo at 10 mg/kg in test [2] was found to be 26.8%.

On to `Cc1c(-c2ccccc2)[nH]c2ccc(C(=O)O)cc2c1=O` [Example 10], for which the inhibition at 1 µM in test [1] is 21%. Moreover, the inhibition in vivo at 10 mg/kg in test [2] was determined as 22.4%.

`C=CCc1c(-c2ccccc2)[nH]c2ccc(C(=O)OC)cc2c1=O` [Example 11]: the inhibition at 1 µM in test [1] came to 37.5%. In addition, the inhibition in vivo at 10 mg/kg in test [2] came to 20.1%.

Regarding `C=CCc1c(-c2ccccc2)[nH]c2ccc(C(=O)O)cc2c1=O` [Example 12], in test [1], the inhibition at 1 µM came to 22.3%. The inhibition in vivo at 10 mg/kg in test [2] worked out at 17.5%.

For `CCn1c(-c2ccccc2)cc(=O)c2cc(C(=O)OC)ccc21` [Example 13], the inhibition at 1 µM in test [1] is 25.4%. For the same compound, the inhibition in vivo at 10 mg/kg in test [2] was 18.9%.

`CCn1c(-c2ccccc2)cc(=O)c2cc(C(=O)O)ccc21` [Example 14]: the inhibition at 1 µM in test [1] came to 28.9%. Further, the inhibition in vivo at 10 mg/kg in test [2] stood at 16.4%.

In the case of `CCCn1c(-c2ccccc2)cc(=O)c2cc(C(=O)OC)ccc21` [Example 15], in test [1], the inhibition at 1 µM was 65.3%. Besides, the inhibition in vivo at 10 mg/kg in test [2] was determined as 19.7%.

For `CCCn1c(-c2ccccc2)cc(=O)c2cc(C(=O)O)ccc21` [Example 16], in test [1], the inhibition at 1 µM turned out to be 19.7%. Also, the inhibition in vivo at 10 mg/kg in test [2] was 23.4%.

Take `C=CCn1c(-c2ccccc2)cc(=O)c2cc(C(=O)OC)ccc21` [Example 17]: in test [1], the inhibition at 1 µM amounted to 22.7%. In test [2], the inhibition in vivo at 10 mg/kg is 20.4%.

Regarding `C=CCn1c(-c2ccccc2)cc(=O)c2cc(C(=O)O)ccc21` [Example 18], the inhibition at 1 µM in test [1] is 24.3%. For the same compound, the inhibition in vivo at 10 mg/kg in test [2] is 26.5%.

On to `CCCCCCn1c(-c2ccccc2)cc(=O)c2cc(C(=O)OC)ccc21` [Example 19], for which the inhibition at 1 µM in test [1] worked out at 27.5%. In test [2], the inhibition in vivo at 10 mg/kg worked out at 27%.

On to `O=C(O)c1ccc2[nH]c(-c3ccccc3Cl)cc(=O)c2c1` [Example 23], for which the “1/1000 mM SRS-A Inhibition Ratio %” value in test [1] (listed as 2-Chloro) turned out to be 24.9%. The “PCA Inhibition Ratio %” value in test [2] (listed as 2-Chloro) is on record as 18.7%.

For the compound `COC(=O)c1ccc2[nH]c(-c3ccccc3Br)cc(=O)c2c1` [Example 24], in test [1], the inhibition at 1 µM stood at 55.8%. Moreover, in test [2], the inhibition in vivo at 10 mg/kg was determined as 23.4%.

For `O=C(O)c1ccc2[nH]c(-c3ccccc3Br)cc(=O)c2c1` [Example 25], the inhibition at 1 µM in test [1] is 25.7%. For the same compound, the inhibition in vivo at 10 mg/kg in test [2] was found to be 17.2%.

`COC(=O)c1ccc2[nH]c(-c3ccccc3F)cc(=O)c2c1` [Example 26]: the inhibition at 1 µM in test [1] was 38.5%. The inhibition in vivo at 10 mg/kg in test [2] worked out at 20.6%.

In the case of `O=C(O)c1ccc2[nH]c(-c3ccccc3F)cc(=O)c2c1` [Example 27], the inhibition at 1 µM in test [1] turned out to be 23.4%. Moreover, the inhibition in vivo at 10 mg/kg in test [2] came to 25.6%.

Consider `O=C(O)c1ccc2[nH]c(-c3cccc(Cl)c3)cc(=O)c2c1` [Example 30], for which the inhibition at 1 µM in test [1] stood at 24.5%. In addition, in test [2], the inhibition in vivo at 10 mg/kg is 43%.

`O=C(O)c1ccc2[nH]c(-c3cccc(Cl)c3)cc(=O)c2c1` [Example 31]: the “1/1000 mM SRS-A Inhibition Ratio %” value in test [1] (listed as 3-Chloro) worked out at 25.5%. For the same compound, the “PCA Inhibition Ratio %” value in test [2] (listed as 3-Chloro) came to 24.4%.

Regarding `COC(=O)c1ccc2[nH]c(-c3ccc(Cl)cc3)cc(=O)c2c1` [Example 32], the inhibition at 1 µM in test [1] was 20.6%. Moreover, the inhibition in vivo at 10 mg/kg in test [2] stood at 24.4%.

With `O=C(O)c1ccc2[nH]c(-c3ccc(Cl)cc3)cc(=O)c2c1` [Example 33], the inhibition at 1 µM in test [1] came to 22.5%. The inhibition in vivo at 10 mg/kg in test [2] came to 22.3%.

With `COC(=O)c1ccc2[nH]c(-c3ccc(Cl)cc3Cl)cc(=O)c2c1` [Example 34], in test [1], the inhibition at 1 µM worked out at 19.3%. The inhibition in vivo at 10 mg/kg in test [2] came to 17.4%.

On to `O=C(O)c1ccc2[nH]c(-c3ccc(Cl)cc3Cl)cc(=O)c2c1` [Example 35], for which the inhibition at 1 µM in test [1] stood at 25.6%. In addition, the inhibition in vivo at 10 mg/kg in test [2] was 39.4%.

On to `O=C(O)c1ccc2[nH]c(-c3ccc(Cl)cc3Cl)cc(=O)c2c1` [Example 36], for which, in test [1] (listed as 2,4-Dichloro), the “1/1000 mM SRS-A Inhibition Ratio %” value is reported as 14.5%. For the same compound, the “PCA Inhibition Ratio %” value in test [2] (listed as 2,4-Dichloro) was found to be 20.4%.

For `COC(=O)c1ccc2[nH]c(-c3ccc(Cl)c(Cl)c3)cc(=O)c2c1` [Example 37], in test [1], the inhibition at 1 µM came to 24.3%. For the same compound, the inhibition in vivo at 10 mg/kg in test [2] amounted to 17.1%.

Take `O=C(O)c1ccc2[nH]c(-c3cc(Cl)ccc3Cl)cc(=O)c2c1` [Example 40]: in test [1], the inhibition at 1 µM was determined as 27.5%. Moreover, in test [2], the inhibition in vivo at 10 mg/kg was found to be 25.4%.

Regarding `Cc1ccccc1-c1cc(=O)c2cc(C(=O)O)ccc2[nH]1` [Example 43], the “1/1000 mM SRS-A Inhibition Ratio %” value in test [1] (listed as 2-Methyl) was found to be 17.3%. In test [2] (listed as 2-Methyl), the “PCA Inhibition Ratio %” value is given as 24.8%.

For the compound `CCc1ccccc1-c1cc(=O)c2cc(C(=O)OC)ccc2[nH]1` [Example 44], the inhibition at 1 µM in test [1] turned out to be 41.3%. Also, the inhibition in vivo at 10 mg/kg in test [2] is 18%.

As for `CCc1ccccc1-c1cc(=O)c2cc(C(=O)O)ccc2[nH]1` [Example 45], in test [1], the inhibition at 1 µM came out at 25.4%. Besides, the inhibition in vivo at 10 mg/kg in test [2] worked out at 24.2%.

For the compound `COC(=O)c1ccc2[nH]c(-c3ccc(C)cc3)cc(=O)c2c1` [Example 46], the inhibition at 1 µM in test [1] worked out at 19.8%. Besides, the inhibition in vivo at 10 mg/kg in test [2] is 27.3%.

With `Cc1ccc(-c2cc(=O)c3cc(C(=O)O)ccc3[nH]2)cc1` [Example 47], in test [1], the inhibition at 1 µM was 18.9%. For the same compound, in test [2], the inhibition in vivo at 10 mg/kg turned out to be 17.3%.

Take `COC(=O)c1ccc2[nH]c(-c3ccc(C(C)C)cc3)cc(=O)c2c1` [Example 48]: the inhibition at 1 µM in test [1] is 24.2%. Further, the inhibition in vivo at 10 mg/kg in test [2] turned out to be 26.4%.
